Patent US3991187A, “Medicinal compositions and methods of use involving phosphoric acid esters” (Aktiebolaget Leo, priority 1971, dated 1976)
Structures can show the parent of a compound that is named as a salt.

Tests used:
[1] = system: prostaglandins E1, E2 F1α and F2α; experiment: PG-inhibitory effect on the isolated gerbil colon; type: cell-based, Gerbils (Meriones unguiculatus); details: for concentration for 50 per cent reduction of the PG-induced contraction, as fraction of that of PPP: relative to PPP (10-75 μg/ml); for selective inhibitory effects compared with PPP: gerbil colon
Experimental: The PG-inhibitory effect of esters of the present invention on the gerbil colon are determined using the general technique described by Eakins, Miller & Karim (J. Pharm. Exp. Ther. 176:441, 1971). Gerbils (Meriones unguiculatus) of own breed, both sexes, weighing 50-80 g are used. The animal is stunned, colon ascendens immediately removed, and a 2-3 cm piece mounted in a 6 ml bath containing a modified de Jalon solution at 28° C and continuously oxygenated. Contractions of the organ are registered either isotonically or isometrically. When testing the inhibitory effect of a compound this is added to the bath 2 min before the addition of prostaglandin. […] Several concentrations of each antagonist are used.

bronchial smooth muscle = experiment: isolated perfused guinea-pig lung preparation, bronchoconstriction; type: cell-based, guinea pigs
From the text: The effects of esters of the present invention on bronchial smooth muscle have been investigated using an isolated perfused guinea-pig lung preparation according to Bhattacharya & Delaunois (Arch. Int. Pharmacodyn. 101:495, 1955). The lungs from guinea pigs weighing 300-400 g are removed, and the trachea and A. pulmonalis cannulated. The arterial cannula is connected to a perfusion fluid reservoir containing Tyrode solution buffered with 10 % Sorensen phosphate buffer. The tracheal cannula is connected with tubing to a carbogen gas supply delivering a constant amount per time unit. The perfusion pressure is measured in a side arm of the tubing with a "Mercury" transducer connected to an Ultralette UV-recorder. The compounds are injected via the arterial cannula, close to the entrance of A. pulmonalis in the lung.

[2] = system: Slow Reacting Substance (SRS); experiment: antagonism to Slow Reacting Substance on the isolated guinea-pig ileum (Mathe & Strandberg); type: cell-based
Experimental: The antagonism to Slow Reacting Substance (SRS) is determined on the isolated guinea-pig ileum as described by Mathe & Strandberg (Acta physiol. scand. 82:460, 1971). Purified SRS is obtained from cat paws perfused with compound 48/80 (Strandberg & Uvnas: Acta physiol. scand. 82:358, 1971). Sodium bis(4-(3-oxo-3-(2,4,6-trihydroxyphenyl)propyl)phenyl) phosphate was tested in this system in several concentrations.

gerbil colon = experiment: smooth muscle stimulatory effect on the gerbil colon in vivo; parameters: species or system mongolian gerbils; details: for contraction of the colon: i.v., same dose range (from 40 mg/kg)
Experimental: This example illustrates the smooth muscle stimulatory effect of esters of this invention on the gerbil colon in vivo.
The experiments are performed with mongolian gerbils, anesthetized with pentobarbital, 50 mg/kg. The ascending colon is exposed and carefully stretched between silk thread loops and a strain-gauge transducer.
After a stable base-line has been established an ester of this invention, sodium bis (4-(3-oxo-3-(2,4,6-trihydroxyphenyl)-propyl)phenyl) phosphate is infused i.v.
In doses from 40 mg/kg this treatment causes the gut to respond with a series of contractions.

prostaglandins = experiment: quantitative assay: PG dose-response curves in the presence of inhibitor (Arunlakshana & Schild), gerbil colon; type: cell-based, Gerbils (Meriones unguiculatus)
From the text: (§1) Results from these experiments give an approximate idea of the PG-inhibitory potency of the compounds. When more precise information about this is desired we use a more elaborate method involving the establishment of several PG dose-response curves in the presence of various concentrations of inhibitor. The method used is essentially the same as that described by Arunlakshana & Schild (Br. J. Pharm. 14:48, 1959). Other agonists, acetylcholine,5-HT and bradykinin, are included in these experiments in order to determine the selectivity of the antagonism.
(§2) In the quantitative assay it is confirmed that sodium bis(4-(3-oxo-3-(2,4,6-trihydroxyphenyl)propyl)phenyl)phosphate has a PG inhibition potency about 10 times that of PPP on a weight basis, and also the results with sodium bis (3,5-dihydroxy-4-(3-(4-hydroxyphenyl)propionyl)phenyl)phosphate are confirmed.

[3] = system: acetylcholine, 5-HT and bradykinin; experiment: selectivity of the antagonism: other agonists on the gerbil colon; type: cell-based, Gerbils (Meriones unguiculatus); details: far higher concentrations than the prostaglandin-inhibitory ones
From the text: as §1, §2

PGE1 = experiment: prostaglandin-stimulated glycolysis of the prepubertal ovary (lactic acid production); type: cell-based, rats; details: for prostaglandin inhibiting activity: compared with the compound giving 50% reduction at 50-100 μg/ml
Experimental: The action of esters of the present invention on the prostaglandin-stimulated glycolysis of the prepubertal ovary is investigated. The method used has been described in detail by Perklev & Ahren (Life Sciences Part I, 10:1387, 1971). In these experiments ovaries from prepubertal rats are removed and placed in Erlenmeyer flasks containing compounds of this invention dissolved in Krebs biocarbonate buffer. After that the ovaries have been preincubated during 60 min. at 37° C in this medium, they are blotted on filter paper and then washed for 2 min. in plain buffer. The ovaries are then transferred to a new incubation medium containing prostaglandins (PG) dissolved in Krebs bicarbonate buffer and incubated at 37° C for 2 hrs with continuous shaking. The ovarian glycolysis is then determined by measuring the concentration of lactic acid in the incubation medium. When polyphloretin phosphate (PPP) is present in the preincubation medium in a concentration of 500 μg/ml, the subsequent ovarian lactic acid production produced by PGE1 is reduced to about 50% of that obtained with ovaries preincubated in plain buffer. When sodium bis(4-(3-(2,4,6-trihydroxyphenyl)propyl)phenyl)phosphate is investigated in the same experimental system, a 50% reduction of the lactate production is seen when only 50-100 μg/ml of the compound is present in the preincubation medium.

Row | Structure (SMILES) | inhibition of SRS [2] | prostaglandin inhibiting activity (PGE1) | selective inhibitory effects compared with PPP [1] | other results
1 | O=P(O)(Oc1ccccc1)Oc1ccccc1 [sodium salt of diphenyl phosphate, sodium diphenyl phosphates, reference compound] | without effect | – | – | effect on PG-induced contraction ([1]; concentrations 10 times as high as that of PPP): without effect; bronchoconstricting effect (bronchial smooth muscle; dose 12.8 mg): completely lacked such an effect; effect on the colon (gerbil colon; doses up to 400 mg/kg): no effects at all
2 | O=C(CCc1ccc(O)cc1)c1c(O)cc(OP(=O)(O)Oc2cc(O)c(C(=O)CCc3ccc(O)cc3)c(O)c2)cc1O [sodium bis(3,5-dihydroxy-4-(3-(4-hydroxyphenyl)propionyl)phenyl phosphate] | inhibit SRS | same order | – | results of the approximate assay (one fourth of the PPP concentration) in the quantitative assay (prostaglandins): confirmed; concentration for 50 per cent reduction of the PG-induced contraction, as fraction of that of PPP [1]: one fourth; influence on the contractions elicited by acetylcholine, 5-HT or bradykinin [3]: no influence; contraction of the colon (gerbil colon): give contraction in the same dose range
3 | O=C(CCc1ccc(OP(=O)([O-])Oc2ccc(CCC(=O)c3ccc(O)cc3O)cc2)cc1)c1ccc(O)cc1O.[Na+] [Sodium bis(4-(3-(2,4-dihydroxyphenyl)-3-oxopropyl)phenyl) phosphate] | inhibit SRS | same order | equal to or superior to that of PPP | contraction of the colon (gerbil colon): give contraction in the same dose range
4 | O=C(CCc1cccc(OP(=O)([O-])Oc2cccc(CCC(=O)c3ccc(O)cc3O)c2)c1)c1ccc(O)cc1O.[Na+] [sodium bis(3-(3-(2,4-dihydroxyphenyl)-3-oxopropyl)phenyl) phosphate] | inhibit SRS | same order | equal to or superior to that of PPP | –
5 | O=C(CCc1cccc(OP(=O)(O)Oc2cccc(CCC(=O)c3ccc(OP(=O)(O)O)cc3)c2)c1)c1ccc(OP(=O)(O)O)cc1 [bis(dihydrogen phosphate) of bis(3-(3-(4-hydroxyphenyl)-3-oxopropyl)phenyl hydrogen phosphate] | inhibit SRS | same order | equal to or superior to that of PPP | –
6 | O=C(CCc1cccc(OP(=O)([O-])Oc2cccc(CCC(=O)c3c(O)cc(O)cc3O)c2)c1)c1c(O)cc(O)cc1O.[Na+] [sodium bis(3-(3-(2,4,6-trihydroxyphenyl)-3-oxopropyl)phenyl) phosphate] | inhibit SRS | same order | equal to or superior to that of PPP | –
7 | O=C(CCc1ccc(OP(=O)([O-])Oc2ccc(CCC(=O)c3c(O)cc(O)cc3O)cc2)cc1)c1c(O)cc(O)cc1O.[Na+] [sodium bis(4-(3-oxo-3-(2,4,6-trihydroxyphenyl)-propyl)phenyl) phosphate] | – | – | – | PG inhibition potency relative to PPP (prostaglandins; on a weight basis): about 10 times; concentration for 50 per cent reduction of the PG-induced contraction, as fraction of that of PPP [1]: about one tenth; dose showing a bronchoconstricting effect (bronchial smooth muscle; injected via the arterial cannula, about 0.5 mg and upwards): ≥ 0.5 mg; influence on the contractions elicited by acetylcholine, 5-HT or bradykinin [3]: no influence; activity as a prostaglandin inhibitor relative to PPP (PGE1): 5-10 times; IC50 (PGE1; Rattus norvegicus, preincubation 60 min at 37° C, read-out: concentration in the preincubation medium giving a 50% reduction of the lactate production): 50 to 100 µg/mL; minimal effective concentration ([2]; Cavia porcellus, concentrations as low as, read-out: concentration that inhibits contractions produced by SRS): ≥ 5 µg/mL; manner of inhibition of SRS ([2]; parallel shift of the dose-response curves, no change in maximum contraction): competitive manner; minimal effective dose (gerbil colon; Meriones unguiculatus, iv, infused i.v., gerbils anesthetized with pentobarbital, ascending colon, read-out: dose causing the gut to respond with a series of contractions): ≥ 40 mg/kg
8 | O=C([O-])Cc1ccc(C(=O)CCc2cccc(OP(=O)([O-])Oc3cccc(CCC(=O)c4ccc(CC(=O)[O-])cc4)c3)c2)cc1.[Na+].[Na+].[Na+] [trisodium bis(3-(3-(4-carboxylatomethylphenyl)-3-oxopropyl)phenyl) phosphate] | inhibit SRS | same order | equal to or superior to that of PPP | –
9 | O=C(CCc1cccc(OP(=O)(O)Oc2cccc(CCC(=O)c3ccc(O)cc3)c2)c1)c1ccc(O)cc1 [sodium bis(3-(3-(4-hydroxyphenyl-3-oxopropyl)phenyl) phosphate] | inhibit SRS | same order | equal to or superior to that of PPP | –
